Results from US11884676B2, “Substituted pyrimido[1,2-b]pyridazines as positive allosteric modulators of the muscarinic acetylcholine receptor M4” (Vanderbilt University, priority 2020, dated 2024).
pEC50: −log10 of the molar value.

Target: T1, Human M4 (Homo sapiens, UniProt P08173)
T1 construct: expressed in transfected cells
T1 sequence (P08173 1-479): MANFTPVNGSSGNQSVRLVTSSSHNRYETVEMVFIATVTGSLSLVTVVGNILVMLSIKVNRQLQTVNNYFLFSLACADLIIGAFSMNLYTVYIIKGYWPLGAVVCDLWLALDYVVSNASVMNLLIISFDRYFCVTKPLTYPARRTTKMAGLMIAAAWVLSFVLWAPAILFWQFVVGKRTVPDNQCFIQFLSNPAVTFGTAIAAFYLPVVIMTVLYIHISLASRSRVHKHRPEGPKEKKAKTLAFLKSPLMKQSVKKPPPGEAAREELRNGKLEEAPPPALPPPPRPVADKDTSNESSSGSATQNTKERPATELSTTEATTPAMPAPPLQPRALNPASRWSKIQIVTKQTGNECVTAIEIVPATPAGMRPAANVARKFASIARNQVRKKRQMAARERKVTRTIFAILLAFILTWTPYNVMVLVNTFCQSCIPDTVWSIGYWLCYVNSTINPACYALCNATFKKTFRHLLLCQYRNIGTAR
Test: mAChR M4 cell-based functional assay (calcium flux, PAM mode)
Conditions: hM4-Gqi5 CHO-K1 cells; for Emax at 30 µM: CHO-K1, % ACh maximum at 30 μM; for pEC50: concentration-dependent increase in the EC20 acetylcholine response
Procedure: Human and rat M4 cDNAs, along with the chimeric G protein Gqi5, were transfected into Chinese hamster ovary (CHO-K1) cells purchased from the American Type Culture Collection using Lipofectamine2000. hM4-Gqi5 cells were grown in Ham's F-12 medium containing 10% heat-inactivated fetal bovine serum (FBS), 20 mM HEPES, 50 μg/mL G418 sulfate, and 500 μg/mL Hygromycin B. rM4-Gqi5 cells were grown in DMEM containing 10% heat-inactivated FBS, 20 mM HEPES, 400 μg/mL G418 sulfate, and 500 μg/mL Hygromycin B.
For high throughput measurement of agonist-evoked increases in intracellular calcium, CHO-K1 cells stably expressing muscarinic receptors were plated in growth medium lacking G418 and hygromycin at 15,000 cells/20 μL/well in Greiner 384-well black-walled, tissue culture (TC)-treated, clear-bottom plates (VWR). Cells were incubated overnight at 37° C. and 5% CO2. The next day, cells were washed using an ELX 405 (BioTek) with assay buffer; the final volume was then aspirated to 20 μL. Next, 20 μL of a 2.3 μM stock of Fluo-4/acetoxymethyl ester (Invitrogen, Carlsbad, CA), prepared as a 2.3 mM stock in DMSO and mixed in a 1:1 ratio with 10% (w/v) Pluronic F-127 and diluted in assay buffer, was added to the wells and the cell plates were incubated for 50 min at 37° C. and 5% CO2. Dye was removed by washing with the ELX 405 and the final volume was aspirated to 20 μL. Compound master plates were formatted in an 11 point concentration-response curve (CRC) format (1:3 dilutions) in 100% DMSO with a starting concentration of 10 mM using a BRAVO liquid handler (Agilent). Test compound CRCs were then transferred to daughter plates (240 nL) using the Echo acoustic plate reformatter (Labcyte, Sunnyvale, CA) and then diluted into assay buffer (40 μL) to a 2× stock using a Thermo Fisher Combi (Thermo Fisher Scientific, Waltham, MA).
Calcium flux was measured using the Functional Drug Screening System (FDSS) 6000 or 7000 (Hamamatsu Corporation, Tokyo, Japan) as an increase in the fluorescent static ratio. Compounds were applied to cells (20 μL, 2×) using the automated system of the FDSS at 2-4 seconds into the protocol and the data were collected at 1 Hz. At 144 seconds, 10 μL of an EC20 concentration of the muscarinic receptor agonist acetylcholine was added (5×), followed by the addition of 12 μL of an EC80 concentration of acetylcholine at the 230 second time point (5×). Agonist activity was analyzed as a concentration-dependent increase in calcium mobilization upon compound addition. Positive allosteric modulator activity was analyzed as a concentration-dependent increase in the EC20 acetylcholine response. Antagonist activity was analyzed as a concentration-dependent decrease in the EC80 acetylcholine response. Concentration-response curves were generated using a four-parameter logistical equation in XLFit curve fitting software (IDBS, Bridgewater, NJ) for Excel (Microsoft, Redmond, WA) or Prism (GraphPad Software, Inc., San Diego, CA).
Compounds were synthesized as described above. Activity (EC50 and Emax) was determined in the mAChR M4 cell-based functional assay as described above and the data are shown in Table 2. The compound number corresponds to the compound numbers used in Examples 1 to 11 and Tables 1.

Row | Emax at 30 µM | pEC50 | Human M4 Emax (%)* (% ACh maximum at 30 μM) | Structure (SMILES)
1 | 80% | 7.70 |  | [2H]C1([2H])Oc2ccc(OC3CCN(c4nn5c(=O)c(F)c(C)nc5cc4C)CC3)cc2OC1([2H])[2H] [Compound 15, 7-(4-((2,3-Dihydrobenzo[b][1,4]dioxin-6-yl-2,2,3,3-d4)oxy)piperidin-1-yl)-3-fluoro-2,8-dimethyl-4H-pyrimido[1,2-b]pyridazin-4-one]
2 | 117% | 7.04 |  | [2H]C1([2H])Oc2ccc(OC3CCN(c4nn5c(=O)c(F)c(C)nc5c(C)c4C)CC3)cc2OC1([2H])[2H] [Compound 16, 7-(4-((2,3-Dihydrobenzo[b][1,4]dioxin-6-yl-2,2,3,3-d4)oxy)piperidin-1-yl)-3-fluoro-2,8,9-trimethyl-4H-pyrimido[1,2-b]pyridazin-4-one]
3 | 91% | 7.92 |  | [2H]C1([2H])Oc2ccc(OC3CCN(c4nn5c(=O)c(Cl)c(C)nc5cc4C)CC3)cc2OC1([2H])[2H] [Compound 17, 3-Chloro-7-(4-((2,3-dihydrobenzo[b][1,4]dioxin-6-yl-2,2,3,3-d4)oxy)piperidin-1-yl)-2,8-dimethyl-4H-pyrimido[1,2-b]pyridazin-4-one]
4 | 90% | 6.79 |  | [2H]C1([2H])Oc2ccc(OC3CCN(c4nn5c(=O)ccnc5c(C)c4COC)CC3)cc2OC1([2H])[2H] [Compound 18, 7-(4-((2,3-Dihydrobenzo[b][1,4]dioxin-6-yl-2,2,3,3-d4)oxy)piperidin-1-yl)-8-(methoxymethyl)-9-methyl-4H-pyrimido[1,2-b]pyridazin-4-one]
5 | 75% | 6.34 |  | [2H]C1([2H])Oc2ccc(OC3CCN(c4nn5c(=O)ccnc5c(COC)c4C)CC3)cc2OC1([2H])[2H] [Compound 19, 7-(4-((2,3-Dihydrobenzo[b][1,4]dioxin-6-yl-2,2,3,3-d4)oxy)piperidin-1-yl)-9-(methoxymethyl)-8-methyl-4H-pyrimido[1,2-b]pyridazin-4-one]
6 | 81% | 6.76 |  | Cc1c(N2CCC(Oc3ccc4c(c3)OCCO4)CC2)nn2c(=O)ccnc2c1C1CC1 [Compound 20, 9-Cyclopropyl-7-(4-((2,3-dihydrobenzo[b][1,4]dioxin-6-yl-2,2,3,3-d4)oxy)piperidin-1-yl)-8-methyl-4H-pyrimido[1,2-b]pyridazin-4-one]
7 |  | 5.68 | 82% | [2H]C1([2H])Oc2ccc(OC3CCN(c4nn5c(=O)ccnc5c(C)c4C4CC4)CC3)cc2OC1([2H])[2H] [Compound 21, 8-cyclopropyl-7-(4-((2,3-dihydrobenzo[b][1,4]dioxin-6-yl-2,2,3,3-d4)oxy)piperidin-1-yl)-9-methyl-4H-pyrimido[1,2-b]pyridazin-4-one]
8 | 36% | 5.74 |  | [2H]C1([2H])Oc2ccc(OC3CCN(c4cc(C)c5nccc(=O)n5n4)CC3)cc2OC1([2H])[2H] [Compound 22, 7-(4-((2,3-dihydrobenzo[b][1,4]dioxin-6-yl-2,2,3,3-d4)oxy)piperidin-1-yl)-9-methyl-4H-pyrimido[1,2-b]pyridazin-4-one]
9 | 91% | 7.36 |  | [2H]C1([2H])Oc2ccc(OC3CCN(c4nn5c(=O)c(Cl)cnc5cc4C)CC3)cc2OC1([2H])[2H] [Compound 23, 3-chloro-7-(4-((2,3-dihydrobenzo[b][1,4]dioxin-6-yl-2,2,3,3-d4)oxy)piperidin-1-yl)-8-methyl-4H-pyrimido[1,2-b]pyridazin-4-one]
10 | 73% | 6.11 |  | Cc1ccc(OC2CCN(c3nn4c(=O)ccnc4cc3C)CC2)cn1 [Compound 24, 8-methyl-7-(4-((6-methylpyridin-3-yl)oxy)piperidin-1-yl)-4H-pyrimido[1,2-b]pyridazin-4-one]
11 | 90% | 6.53 |  | Cc1cc2nccc(=O)n2nc1N1CCC(Oc2ccc(F)cc2)CC1 [Compound 25, 7-(4-(4-fluorophenoxy)piperidin-1-yl)-8-methyl-4H-pyrimido[1,2-b]pyridazin-4-one]
12 | 84% | 7.18 |  | Cc1cc2nccc(=O)n2nc1N1CCC(Oc2ccc3c(c2)OCCO3)CC1 [Compound 26, 7-(4-((2,3-dihydrobenzo[b][1,4]dioxin-6-yl)oxy)piperidin-1-yl)-8-methyl-4H-pyrimido[1,2-b]pyridazin-4-one]
13 | 79% | 6.97 |  | [2H]C1([2H])Oc2cc(OC3CCN(c4nn5c(=O)c(Cl)cnc5cc4C)CC3)cc(C)c2OC1([2H])[2H] [Compound 27, 3-chloro-8-methyl-7-(4-((8-methyl-2,3-dihydrobenzo[b][1,4]dioxin-6-yl-2,2,3,3-d4)oxy)piperidin-1-yl)-4H-pyrimido[1,2-b]pyridazin-4-one]
14 | 93% | 6.54 |  | [2H]C1([2H])Oc2cc(OC3CCN(c4nn5c(=O)ccnc5cc4C)CC3)cc(C)c2OC1([2H])[2H] [Compound 28, 8-methyl-7-(4-((8-methyl-2,3-dihydrobenzo[b][1,4]dioxin-6-yl-2,2,3,3-d4)oxy)piperidin-1-yl)-4H-pyrimido[1,2-b]pyridazin-4-one]
15 | 80% | 7.37 |  | [2H]C1([2H])Oc2ccc(OC3CCN(c4nn5c(=O)c(C)cnc5cc4C)CC3)cc2OC1([2H])[2H] [Compound 29, 7-(4-((2,3-dihydrobenzo[b][1,4]dioxin-6-yl-2,2,3,3-d4)oxy)piperidin-1-yl)-3,8-dimethyl-4H-pyrimido[1,2-b]pyridazin-4-one]
16 | 80% | 7.14 |  | [2H]C1([2H])Oc2ccc(OC3CCN(c4nn5c(=O)c(C6CC6)cnc5cc4C)CC3)cc2OC1([2H])[2H] [Compound 30, 3-cyclopropyl-7-(4-((2,3-dihydrobenzo[b][1,4]dioxin-6-yl-2,2,3,3-d4)oxy)piperidin-1-yl)-8-methyl-4H-pyrimido[1,2-b]pyridazin-4-one]
17 | 82% | 7.49 |  | Cc1cc2ncc(Cl)c(=O)n2nc1N1CCC(Oc2ccc3c(c2)OCCO3)CC1 [Compound 31, 3-chloro-7-(4-((2,3-dihydrobenzo[b][1,4]dioxin-6-yl)oxy)piperidin-1-yl)-8-methyl-4H-pyrimido[1,2-b]pyridazin-4-one]
18 | 81% | 6.83 |  | Cc1cc2nccc(=O)n2nc1N1CC[C@@H](Oc2ccc3c(c2)OCCO3)[C@H](F)C1 [Compound 32, 7-((3R,4R)-4-((2,3-dihydrobenzo[b][1,4]dioxin-6-yl)oxy)-3-fluoropiperidin-1-yl)-8-methyl-4H-pyrimido[1,2-b]pyridazin-4-one]
19 | 117% | 7.40 |  | Cc1cc(=O)n2nc(N3CC[C@@H](Oc4ccc5c(c4)OCCO5)[C@@H](F)C3)c(C)cc2n1 [Compound 33, 7-((3S,4R)-4-((2,3-dihydrobenzo[b][1,4]dioxin-6-yl)oxy)-3-fluoropiperidin-1-yl)-2,8-dimethyl-4H-pyrimido[1,2-b]pyridazin-4-one]
20 | 116% | 7.15 |  | Cc1cc2nccc(=O)n2nc1N1CC[C@@H](Oc2ccc3c(c2)OCCO3)[C@@H](F)C1 [Compound 34, 7-((3S,4R)-4-((2,3-dihydrobenzo[b][1,4]dioxin-6-yl)oxy)-3-fluoropiperidin-1-yl)-8-methyl-4H-pyrimido[1,2-b]pyridazin-4-one]
